From ChEMBL document CHEMBL1201862, “PubChem BioAssay data set” (2004)
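Compound exposure: 48 hours, 5 concentrations, 96-well plates. GI50 marks 50% less growth.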 Active and inactive are the calls of the source. Rule as the data show it: active = GI50 up to about 1.1 µM and inactive = higher.

Columns and labels:
Assay in all cases: NCI tumour cell line growth inhibition, 48 h
[1] = tested on: K562
[2] = tested on: TK-10
[3] = tested on: UO-31
[4] = tested on: NCI-H522
[5] = tested on: CAKI-1
[6] = tested on: LOX IMVI
[7] = tested on: Hs-578T
[8] = tested on: EKVX
[9] = tested on: Malme-3M
[10] = tested on: SN12C
[11] = tested on: HT-29
[12] = tested on: SF-295
[13] = tested on: SNB-75
[14] = tested on: OVCAR-4
[15] = tested on: HOP-92
[16] = tested on: OVCAR-8
[17] = tested on: SK-MEL-5
[18] = tested on: 786-0
[19] = tested on: SF-539
[20] = tested on: SK-MEL-2

Compound	GI50 [1]	GI50 [2]	GI50 [3]	GI50 [4]	GI50 [5]	GI50 [6]	GI50 [7]	GI50 [8]	GI50 [9]	GI50 [10]	GI50 [11]	GI50 [12]	GI50 [13]	GI50 [14]	GI50 [15]	GI50 [16]	GI50 [17]	GI50 [18]	GI50 [19]	GI50 [20]
Nc1nc(Br)nc2ncn(C3CC(O)C(CO)O3)c12 (stereo not given)	23.4 µM (inactive)	> 100 µM (inactive)	7.21 µM (inactive)	> 100 µM (inactive)	16 µM (inactive)	> 72.9 µM (inactive)	> 100 µM (inactive)	> 100 µM (inactive)	> 100 µM (inactive)	10 µM (inactive)	52.7 µM (inactive)	> 100 µM (inactive)	> 100 µM (inactive)	> 100 µM (inactive)	2.42 µM (inactive)	0.236 µM (active)	60 µM (inactive)	77.3 µM (inactive)	58.7 µM (inactive)	> 100 µM (inactive)
CS(=O)(=O)c1nc(Cl)c(Cl)c(C#N)c1Cl	0.859 µM (active)	3.18 µM (inactive)	1.91 µM (inactive)	0.322 µM (active)	0.984 µM (active)	1.95 µM (inactive)	4.34 µM (inactive)	6.27 µM (inactive)	2.3 µM (inactive)	2.27 µM (inactive)	1.97 µM (inactive)	16.7 µM (inactive)	9.89 µM (inactive)	1.96 µM (inactive)	1.99 µM (inactive)	2.88 µM (inactive)	5.12 µM (inactive)	1.94 µM (inactive)	4.48 µM (inactive)	5.37 µM (inactive)
C=CCN1CN(C2CCCCC2)CSC1=S	0.652 µM (active)	3.69 µM (inactive)	8 µM (inactive)	2.8 µM (inactive)	4.72 µM (inactive)	3.9 µM (inactive)	4.94 µM (inactive)	15.6 µM (inactive)	3.16 µM (inactive)	6.84 µM (inactive)	3.48 µM (inactive)	28.4 µM (inactive)	6.12 µM (inactive)	12.8 µM (inactive)	5.18 µM (inactive)	4.06 µM (inactive)	2.68 µM (inactive)	3.27 µM (inactive)	1.36 µM (inactive)	8.18 µM (inactive)
CC1CC(C)CN(S(=O)(=O)c2cc(Cl)c(Oc3ccc([N+](=O)[O-])cc3Cl)c(Cl)c2)C1 (stereo not given)	> 100 µM (inactive)	> 100 µM (inactive)	> 100 µM (inactive)	> 100 µM (inactive)	> 100 µM (inactive)	> 100 µM (inactive)	> 100 µM (inactive)	> 100 µM (inactive)	> 100 µM (inactive)	> 100 µM (inactive)	> 100 µM (inactive)	> 100 µM (inactive)	> 100 µM (inactive)	> 100 µM (inactive)	> 100 µM (inactive)	> 100 µM (inactive)	> 100 µM (inactive)	> 100 µM (inactive)	> 100 µM (inactive)	> 100 µM (inactive)
O/N=N/c1ccccn1.OCC1OC2OC3C(CO)OC(OC4C(CO)OC(OC5C(CO)OC(OC6C(CO)OC(OC7C(CO)OC(OC1C(O)C2O)C(O)C7O)C(O)C6O)C(O)C5O)C(O)C4O)C(O)C3O (stereo not given)	48.4 µM (inactive)	> 100 µM (inactive)	> 100 µM (inactive)	68.2 µM (inactive)	> 100 µM (inactive)	57.3 µM (inactive)	> 100 µM (inactive)	> 100 µM (inactive)	61 µM (inactive)	> 100 µM (inactive)	> 100 µM (inactive)	> 100 µM (inactive)	37.6 µM (inactive)	> 100 µM (inactive)	> 100 µM (inactive)	> 100 µM (inactive)	30.5 µM (inactive)	> 100 µM (inactive)	52.8 µM (inactive)	56.9 µM (inactive)
Cc1ccc(C(=O)Nc2ccc(CP(=O)(O)O)cc2)cc1NC(=O)c1cccc(N)c1	> 100 µM (inactive)	> 100 µM (inactive)	> 100 µM (inactive)	> 100 µM (inactive)	> 100 µM (inactive)	> 100 µM (inactive)	> 100 µM (inactive)	> 100 µM (inactive)	> 100 µM (inactive)	> 100 µM (inactive)	> 100 µM (inactive)	> 100 µM (inactive)	> 100 µM (inactive)	> 100 µM (inactive)	> 100 µM (inactive)	> 100 µM (inactive)	> 100 µM (inactive)	> 100 µM (inactive)	> 100 µM (inactive)	> 100 µM (inactive)
COc1cc(OC)nc(NC(=O)NS(=O)(=O)c2cccc3ncn(C)c(=O)c23)n1	> 100 µM (inactive)	> 100 µM (inactive)	> 100 µM (inactive)	> 100 µM (inactive)	> 100 µM (inactive)	> 100 µM (inactive)	67.1 µM (inactive)	> 100 µM (inactive)	> 100 µM (inactive)	> 100 µM (inactive)	> 100 µM (inactive)	> 100 µM (inactive)	41.3 µM (inactive)	> 100 µM (inactive)	> 100 µM (inactive)	> 100 µM (inactive)	> 100 µM (inactive)	> 100 µM (inactive)	> 100 µM (inactive)	> 100 µM (inactive)
CCOC(=O)c1c(C)n(-c2ccc(C)cc2)c2c1cc(O)c1[nH]c3c(c12)CCCC3	17.7 µM (inactive)	27.5 µM (inactive)	13.9 µM (inactive)	12.7 µM (inactive)	27.9 µM (inactive)	14.4 µM (inactive)	< 0.01 µM (active)	26.1 µM (inactive)	17.7 µM (inactive)	27.5 µM (inactive)	14.9 µM (inactive)	20.6 µM (inactive)	0.0658 µM (active)	13.7 µM (inactive)	2.92 µM (inactive)	22.4 µM (inactive)	11.9 µM (inactive)	16.9 µM (inactive)	15.7 µM (inactive)	12.4 µM (inactive)
C=C1CC2(CCCC3(CC(=C)C(=O)O3)C2(C)C)OC1=O (stereo not given)	3.38 µM (inactive)	1.18 µM (inactive)	3.06 µM (inactive)	1.46 µM (inactive)	2.7 µM (inactive)	1.69 µM (inactive)	20.8 µM (inactive)	4.02 µM (inactive)	1.64 µM (inactive)	3.03 µM (inactive)	3.82 µM (inactive)	16.5 µM (inactive)	16.7 µM (inactive)	4.85 µM (inactive)	5.85 µM (inactive)	1.38 µM (inactive)	14.8 µM (inactive)	1.81 µM (inactive)	3.26 µM (inactive)	7.24 µM (inactive)
CCN(CC)c1ncnc2c1ncn2CCNC(CO)(CO)CO	> 100 µM (inactive)	> 100 µM (inactive)	> 100 µM (inactive)	> 100 µM (inactive)	> 100 µM (inactive)	> 100 µM (inactive)	> 100 µM (inactive)	> 100 µM (inactive)	> 100 µM (inactive)	> 100 µM (inactive)	> 100 µM (inactive)	> 100 µM (inactive)	> 100 µM (inactive)	> 100 µM (inactive)	> 100 µM (inactive)	> 100 µM (inactive)	> 100 µM (inactive)	> 100 µM (inactive)	> 100 µM (inactive)	> 100 µM (inactive)
Nc1nc2c(ncn2Cc2ccc(CO)cc2)c(=O)[nH]1	> 100 µM (inactive)	> 100 µM (inactive)	> 100 µM (inactive)	> 100 µM (inactive)	> 100 µM (inactive)	> 100 µM (inactive)	> 100 µM (inactive)	> 100 µM (inactive)	> 100 µM (inactive)	> 100 µM (inactive)	> 100 µM (inactive)	> 100 µM (inactive)	> 100 µM (inactive)	> 100 µM (inactive)	> 100 µM (inactive)	> 100 µM (inactive)	> 100 µM (inactive)	> 100 µM (inactive)	> 100 µM (inactive)	> 100 µM (inactive)
